Measurements reported in patent EP0381514B1, “Use of N-methyl-sphingosine as inhibitor of cell growth” (The Biomembrane Institute, priority 1989, dated 1990).

Legend:
C-kinase = assay: Inhibition of C-kinase activity (liposome method, histone III-S, 32P-ATP); assay type: biochemical, human; design: C-kinase ³²P incorporation: unit: cpm; conditions: for inhibitory activity of C-kinase: conclusion in words from Tables I, II and Figs. 2, 3; for C-kinase ³²P incorporation %: relative to phosphatidyl-serine, diolein, Ca⁺² control = 100; for Inhibition of C-kinase (concentration in »M yielding 50% inhibition): C-kinase from A431 cells
Procedure: A431 cells were grown in a mixture of DME and Ham's F-12 medium (weight ratio 1:1) supplemented with 10% fetal calf serum (FCS). […] Briefly, cells were scraped by rubber policeman, suspended in 50 ml of 20 mM Tris-HCL (pH 7.5), 2 mM EDTA, 0.5 mM EGTA, 0.15 U/ml aprotinine, and 0.25 M sucrose, and homogenized by 50 strokes at 4°C in a Dounce homogenizer (40-ml size, Wheaton). The homogenized cells were ultracentrifuged at 100,000 xg for 60 min. The supernatant was purified on a DE52 column equilibrated with 20 mM Tris-HCL (pH 7.5), 2 mM EDTA, and 0.5 mM EGTA (buffer B), and washed well with this buffer. The C-kinase activity was eluted with buffer B containing 0.1 M NaCl.
The lipid mixture was sonicated in 30 »l of 20 mM Tris-HCl (pH 7.5) for 30 min. The liposomes in the tube were supplemented with the reaction mixture, consisting of 25 mM Tris-HCl (pH 7.5), 10 mM MgCl₂, 400 »M EDTA, 50 »M EGTA, 500 »M CaCl₂, 200 »g/ml Histone III-S, and 20 »M gamma-[³²P]-ATP (2 x 10⁶ cpm); final volume was 90 »l.
The reaction was initiated by addition of 10 »l of C-kinase fraction (containing 1-2 »g protein) prepared as described above, and the reaction mixture was incubated for 10 min at 30°C. […] The value without phosphatidylserine, 1,2-diolein, or Ca²⁺ were used as a control.

[1] = system: human colonic cancer cells HRT-18; assay: Inhibition of growth of human colonic cancer cells HRT-18 in vitro (cell count after 3 days); assay type: cell-based; conditions: HRT-18, 3 days
Procedure: HRT-18 cells were seeded in plates in Dulbecco's modified Eagle's medium supplemented with 10% fetal calf serum (5 x 10⁵ cells per each 3 cm plate). After the cells were cultured overnight, the medium was replaced with the same media containing various concentrations of N,N-dimethyl- or N-monomethyl sphingosine, N-acetylsphingosine, and ceramide as shown in Fig. 4. Cultures were continued for 3 days, and cell numbers were counted. The percent inhibition of cell numbers in the presence of reagents was calculated as percent of control dishes, which contained no sphingosine derivatives.

HRT18 tumor cells = assay: Inhibition of in vivo growth of HRT18 tumor cells in nude mice; conditions: 44 »g/200 »l in PBS injected at day 7, 11 and 15; tumor weight estimated by size; significant (p>0.005 as printed)
Procedure: The effect of N,N-dimethyl-sphingosine (prepared from naturally occurring sphingolipid as described in Example 3) on in vivo growth of HRT18 tumor cells in nude mice was determined as follows.
1 x 10⁶ HRT-18 human colonic cancer cells were inoculated into nude mice at day 0 by known methods. N,N-dimethylsphingosine emulsified in phosphate buffered saline (PBS) (44 »g/200 »l) was injected at day 7, 11, and 15. Tumor growth weight in mg was estimated by the size of the tumors. Each group consisted of ten animals.

[2] = system: human peripheral blood lymphocytes; assay: Inhibition of IL-2-dependent mitogenesis (3H-thymidine incorporation), human lymphocytes; assay type: cell-based; conditions: 0.5 U/ml IL-2
Procedure: Human peripheral blood lymphocytes isolated from human blood by known methods were cultured in RPMI containing 0.5 U/ml IL-2. […] Mitogenesis was measured by incorporation of ³H-thymidine into DNA over a 5-hour period. Percent inhibition as compared to the control value (without addition of any inhibitor) was determined.

mouse splenocytes [3] = assay: Inhibition of concanavalin-A-induced mitogenesis, mouse splenocytes; assay type: cell-based
Procedure: The effect of N,N-dimethyl-sphingosine (prepared from naturally occurring sphingolipid as described in Example 3) on conconavalin-A (con-A) -induced mitogenesis was tested using human peripheral blood lymphocytes and mouse splenocytes.
Inhibition of con-A-induced mitogenisis of mouse splenocytes was determined in an analogous manner.

[4] = system: human peripheral blood lymphocytes; assay: Inhibition of concanavalin-A-induced mitogenesis (3H-thymidine uptake), human lymphocytes; assay type: cell-based; conditions: 2 »g con-A/ml
Procedure: Peripheral blood lymphocytes isolated from human blood by known methods were cultured in RPMI containing 2 »g con-A/ml for 18 hours in multiple wells. Subsequently, various concentrations of N,N-dimethylsphingosine, sphingosine, or N-acetylsphingosine as shown in Fig. 6 were added to the culture media and cultured continuously for 5 hours, followed by addition of ³H-thymidine. The thymidine uptake over a 5-hour period was determined. The % inhibition of mitogenesis was calculated based on control value (without addition of any inhibitor).

mouse splenocytes [5] = assay: Inhibition of IL-2-dependent mitogenesis, mouse splenocytes; assay type: cell-based
Procedure: The effect of N,N-dimethyl-sphingosine (prepared from naturally occurring sphingolipid as described in Example 3) on IL-2-dependent mitogenesis was tested using human peripheral blood lymphocytes and mouse splenocytes.
Inhibition of IL-2-induced mitogenesis of mouse splenocytes was determined in an analogous manner.

CCCCCCCCCCCCC/C=C/[C@@H](O)[C@@H](N)CO [D-erythro-sphingenine, D(+)-erythro-sphingenine, reference compound]
inhibitory activity of C-kinase (C-kinase): weak and similar inhibitory activity | C-kinase ³²P incorporation (C-kinase; lipid added at 50 »M): 18754 ± 2184 | C-kinase ³²P incorporation % (C-kinase; lipid added at 50 »M, 50 µM): 47 ± 6%

CCCCCCCCCCCCC/C=C/[C@H](O)[C@H](N)CO [L-erythro-sphingenine, L(-)-erythro-sphingenine, reference compound]
inhibitory activity of C-kinase (C-kinase): weak and similar inhibitory activity | C-kinase ³²P incorporation (C-kinase; lipid added at 50 »M): 18549 ± 2760 | C-kinase ³²P incorporation % (C-kinase; lipid added at 50 »M, 50 µM): 47 ± 7%

CCCCCCCCCCCCC/C=C/[C@@H](O)[C@H](CO)N(C)C [N,N-dimethyl-D-erythro-sphingenine]
inhibitory activity of C-kinase (C-kinase): strikingly strong inhibitory activity | C-kinase ³²P incorporation (C-kinase; lipid added at 2 »M): 34206 ± 1220 | C-kinase ³²P incorporation % (C-kinase; lipid added at 2 »M, 2 µM): 86 ± 3% | C-kinase ³²P incorporation (C-kinase; lipid added at 10 »M): 20563 ± 1173 | C-kinase ³²P incorporation % (C-kinase; lipid added at 10 »M, 10 µM): 52 ± 3% | C-kinase ³²P incorporation (C-kinase; lipid added at 25 »M): 15214 ± 377 | C-kinase ³²P incorporation % (C-kinase; lipid added at 25 »M, 25 µM): 38 ± 1% | C-kinase ³²P incorporation (C-kinase; lipid added at 50 »M): 5254 | C-kinase ³²P incorporation % (C-kinase; lipid added at 50 »M, 50 µM): 13%

CCCCCCCCCCCCC/C=C/[C@H](O)[C@@H](CO)N(C)C [N,N-dimethyl-L-erythro-sphingenine]
inhibitory activity of C-kinase (C-kinase): weaker inhibitory activity | C-kinase ³²P incorporation (C-kinase; lipid added at 2 »M): 37354 ± 1420 | C-kinase ³²P incorporation % (C-kinase; lipid added at 2 »M, 2 µM): 95 ± 4% | C-kinase ³²P incorporation (C-kinase; lipid added at 10 »M): 25583 ± 1931 | C-kinase ³²P incorporation % (C-kinase; lipid added at 10 »M, 10 µM): 65 ± 5% | C-kinase ³²P incorporation (C-kinase; lipid added at 25 »M): 21743 ± 577 | C-kinase ³²P incorporation % (C-kinase; lipid added at 25 »M, 25 µM): 55 ± 2% | C-kinase ³²P incorporation (C-kinase; lipid added at 50 »M): 11020 | C-kinase ³²P incorporation % (C-kinase; lipid added at 50 »M, 50 µM): 28%

CCCCCCCCCCCCC/C=C/[C@H](O)[C@H](CO)N(C)C [N,N-dimethyl-L-threo-sphingosine]
inhibition of cell growth ([1]; at 12.5 »M concentration): significantly inhibited

CCCCCCCCCCCCC/C=C/[C@@H](O)[C@H](CO)N(C)C [N,N-dimethyl-sphingosine]
inhibition of growth (HRT18 tumor cells): more than 50% | inhibition of IL-2-dependent mitogenesis [2]: invariably inhibited | inhibitory effect on concanavalin-A-induced mitogenesis (mouse splenocytes [3]): strong inhibitory effect | inhibition of con-A-dependent growth stimulation [4]: greatly inhibited | inhibitory effect on IL-2-dependent mitogenesis (mouse splenocytes [5]): strong inhibitory effect | inhibition of cell growth ([1]; at 12.5 »M concentration): significantly inhibited

CCCCCCCCCCCCC/C=C/[C@@H](O)[C@H](CO)NC(C)=O [N-acetylsphingosine, reference compound]
Inhibition of C-kinase (concentration in »M yielding 50% inhibition) (C-kinase): no inhibition | inhibition of IL-2-dependent mitogenesis [2]: less so | inhibition of cell growth ([1]; at 150 »M concentration): minimum inhibition

CCCCCCCCCCCCC/C=C/[C@@H](O)[C@@H](N)CO [sphingosine]
inhibition of IL-2-dependent mitogenesis [2]: less so

Ceramide [reference compound]
Inhibition of C-kinase (concentration in »M yielding 50% inhibition) (C-kinase): no inhibition | inhibition of cell growth ([1]; at 150 »M concentration): minimum inhibition

Lactosylsphingosine [reference compound]
Inhibition of C-kinase (concentration in »M yielding 50% inhibition) (C-kinase): no inhibition

N-monomethyl-sphingosine
inhibition of cell growth ([1]; at 12.5 »M concentration): significantly inhibited
